{
  "source": "patent US10206908B2",
  "about": "“3-(1H-pyrrolo[3,2-C]pyridin-2-YL)-1H-pyrazolo[3,4-C]pyridines and therapeutic uses thereof” (Samumed, LLC, priority 2015, dated 2019)",
  "format_in_all_cases": "cell-based",
  "key": {"[1]": {"test_system": "Wnt activity (Sp5-Luc reporter, SW480 colon carcinoma cells)", "assay": "Screening assay for Wnt activity: Sp5-Luc reporter gene assay in SW480 colon carcinoma cells", "conditions": "Homo sapiens; Sp5-Luc reporter, SW480 cells, overnight incubation", "method_in_brief": "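SW480 colon carcinoma cells stably carrying Sp5 promoter (eight TCF/LEF sites)-driven firefly luciferase, plated at 4,000 cells/well in 1% FBS medium and incubated overnight at 37° C. Luminescence normalised to DMSO-only cells; EC50 from four-parameter variable-slope nonlinear regression.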"}, "SW480 colon cancer cells": {"test_system": "SW480 colon cancer cells", "assay": "Cell viability assay (CellTiter-Blue) in SW480 colon cancer cells", "conditions": "Homo sapiens; for EC50: 96 h, SW480 cell viability, four days; for inhibition at 10 µM: SW480, read-out: percent inhibition at 10 μM", "method_in_brief": "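Fluorescence from resazurin reduced to resorufin by metabolically active cells was the read-out, taken after ~3 h with CellTiter-Blue.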"}, "[2]": {"test_system": "primary human fibroblasts derived from IPF patients (LL29 cells) treated with TGF-β1", "assay": "Inhibition of the fibrotic process: αSMA staining in TGF-β1 treated LL29 fibroblasts", "conditions": "Fibroblast, 96 h, % αSMA positive LL29 cells, TGF-β1 20 ng/mL, 4 days", "method_in_brief": "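IPF-patient-derived LL29 lung fibroblasts in F12 with 1% FBS, stimulated with TGF-β1 alongside compound; TGF-β1 plus DMSO wells served as controls. After 4 days, nuclei stained with 1 μM SYTOX green for 30 min at room temperature, alongside αSMA staining.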"}, "[3]": {"test_system": "primary human mesenchymal stem cells (hMSCs)", "assay": "Induction of chondrogenesis in hMSCs (chondrogenic nodules, Rhodamine B/Nile Red)", "conditions": "6 days; for EC50: concentration required to induce 50% levels of chondrogenesis vs TGF-β3, read-out: Conc (nM) of 50% TGF-β3 activity; for Emax: relative to TGF-β3 (10 ng/mL) positive control, read-out: Max. Activity as % TGF-β3 activity", "method_in_brief": "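Primary hMSCs at passages 3 to 6 were scored for chondrogenic nodules. Counts were normalized to the mean of 3 DMSO wells on the same plate, averaging 3 replicate wells per concentration. TGF-β3 served as positive control; reported values are the concentration giving 50% chondrogenesis plus maximum activity and its dose.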"}, "IL-6 (THP-1 cells)": {"test_system": "IL-6 (THP-1 cells)", "assay": "IL-6 inhibition in LPS-stimulated THP-1 monocytes (HTRF)", "conditions": "Homo sapiens; for EC50: IL-6, THP-1 cells, LPS 500 ng/mL, 22 hours; for inhibition at 10 µM: THP-1, read-out: percent inhibition at 10 μM", "method_in_brief": "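THP-1 cells kept 24 h in 1% FBS medium, exposed to compound 2 h at 37 °C, then stimulated with 500 ng/mL LPS for 22 h. Secreted IL-6 quantified by HTRF (665/620 nm ratio), duplicates. Values normalized to DMSO; EC50 by four-parameter variable-slope regression.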"}},
  "data": [
    {"smiles": "CC(C)CC(=O)Nc1cncc(-c2cc3c(-c4cc5c(-c6cccs6)nccc5[nH]4)n[nH]c3cn2)c1", "note": "[Compound 338, 3-Methyl-N-(5-(3-(4-(thiophen-2-yl)-1H-pyrrolo[3,2-c]pyridin-2-yl)-1H-pyrazolo[3,4-c]pyridin-5-yl)pyridin-3-yl)butanamide]", "values": [
      {"measurement": "EC50", "setting": "[1]", "result": 572, "unit": "nM"},
      {"measurement": "EC50", "setting": "SW480 colon cancer cells", "result": 440, "unit": "nM"},
      {"measurement": "EC50", "setting": "[2]", "result": 155, "unit": "nM"},
      {"measurement": "EC50", "setting": "[3]", "result": 10, "unit": "nM"},
      {"measurement": "Emax", "setting": "[3]", "result": 81, "unit": "%"},
      {"measurement": "EC50", "setting": "IL-6 (THP-1 cells)", "result": 449, "unit": "nM"}
    ]},
    {"smiles": "CN(C)c1cncc(-c2cc3c(-c4cc5c(-c6cccs6)nccc5[nH]4)n[nH]c3cn2)c1", "note": "[Compound 343, N,N-Dimethyl-5-(3-(4-(thiophen-2-yl)-1H-pyrrolo[3,2-c]pyridin-2-yl)-1H-pyrazolo[3,4-c]pyridin-5-yl)pyridin-3-amine]", "values": [
      {"measurement": "EC50", "setting": "[1]", "result": 1490, "unit": "nM"},
      {"measurement": "EC50", "setting": "SW480 colon cancer cells", "result": 611, "unit": "nM"},
      {"measurement": "EC50", "setting": "[2]", "result": 694, "unit": "nM"},
      {"measurement": "EC50", "setting": "[3]", "result": 300, "unit": "nM"},
      {"measurement": "Emax", "setting": "[3]", "result": 51, "unit": "%"},
      {"measurement": "inhibition at 10 µM", "setting": "IL-6 (THP-1 cells)", "result": 0, "unit": "%"},
      {"measurement": "EC50", "setting": "IL-6 (THP-1 cells)", "result": "> 10000", "unit": "nM"}
    ]},
    {"smiles": "Fc1ccccc1-c1nccc2[nH]c(-c3n[nH]c4cnc(-c5cncc(CN6CCCC6)c5)cc34)cc12", "note": "[Compound 70, 3-(4-(2-Fluorophenyl)-1H-pyrrolo[3,2-c]pyridin-2-yl)-5-(5-(pyrrolidin-1-ylmethyl)pyridin-3-yl)-1H-pyrazolo[3,4-c]pyridine]", "values": [
      {"measurement": "EC50", "setting": "[1]", "result": 1980, "unit": "nM"},
      {"measurement": "EC50", "setting": "SW480 colon cancer cells", "result": 3160, "unit": "nM"},
      {"measurement": "EC50", "setting": "[2]", "result": 1250, "unit": "nM"},
      {"measurement": "EC50", "setting": "[3]", "result": 10, "unit": "nM"},
      {"measurement": "Emax", "setting": "[3]", "result": 69, "unit": "%"},
      {"measurement": "EC50", "setting": "IL-6 (THP-1 cells)", "result": 2320, "unit": "nM"}
    ]},
    {"smiles": "CN1CCN(c2nccc3[nH]c(-c4n[nH]c5cnc(-c6cncc(CN7CCC(F)(F)C7)c6)cc45)cc23)CC1", "note": "[Compound 250, 5-(5-((3,3-Difluoropyrrolidin-1-yl)methyl)pyridin-3-yl)-3-(4-(4-methylpiperazin-1-yl)-1H-pyrrolo[3,2-c]pyridin-2-yl)-1H-pyrazolo[3,4-c]pyridine]", "values": [
      {"measurement": "EC50", "setting": "[1]", "result": 1100, "unit": "nM"},
      {"measurement": "EC50", "setting": "SW480 colon cancer cells", "result": 2370, "unit": "nM"},
      {"measurement": "EC50", "setting": "[2]", "result": 641, "unit": "nM"},
      {"measurement": "EC50", "setting": "[3]", "result": 10, "unit": "nM"},
      {"measurement": "Emax", "setting": "[3]", "result": 76, "unit": "%"},
      {"measurement": "EC50", "setting": "IL-6 (THP-1 cells)", "result": 323, "unit": "nM"}
    ]},
    {"smiles": "CN1CCN(c2nccc3[nH]c(-c4n[nH]c5cnc(-c6cncc(NC(=O)c7ccccc7)c6)cc45)cc23)CC1", "note": "[Compound 235, N-(5-(3-(4-(4-Methylpiperazin-1-yl)-1H-pyrrolo[3,2-c]pyridin-2-yl)-1H-pyrazolo[3,4-c]pyridin-5-yl)pyridin-3-yl)benzamide]", "values": [
      {"measurement": "EC50", "setting": "[1]", "result": 2800, "unit": "nM"},
      {"measurement": "EC50", "setting": "SW480 colon cancer cells", "result": "> 10000", "unit": "nM"},
      {"measurement": "inhibition at 10 µM", "setting": "SW480 colon cancer cells", "result": 21.5, "unit": "%"},
      {"measurement": "EC50", "setting": "[2]", "result": 2460, "unit": "nM"},
      {"measurement": "EC50", "setting": "[3]", "result": 10, "unit": "nM"},
      {"measurement": "Emax", "setting": "[3]", "result": 67, "unit": "%"},
      {"measurement": "EC50", "setting": "IL-6 (THP-1 cells)", "result": 1340, "unit": "nM"}
    ]},
    {"smiles": "CN(C)CCOc1cncc(-c2cc3c(-c4cc5c(-c6ccc(F)cc6)nccc5[nH]4)n[nH]c3cn2)c1", "note": "[Compound 531, 2-((5-(3-(4-(4-Fluorophenyl)-1H-pyrrolo[3,2-c]pyridin-2-yl)-1H-pyrazolo[3,4-c]pyridin-5-yl)pyridin-3-yl)oxy)-N,N-dimethylethan-1-amine]", "values": [
      {"measurement": "EC50", "setting": "[1]", "result": 3200, "unit": "nM"},
      {"measurement": "EC50", "setting": "SW480 colon cancer cells", "result": 3590, "unit": "nM"},
      {"measurement": "EC50", "setting": "[2]", "result": 920, "unit": "nM"},
      {"measurement": "EC50", "setting": "[3]", "result": 900, "unit": "nM"},
      {"measurement": "Emax", "setting": "[3]", "result": 113, "unit": "%"},
      {"measurement": "EC50", "setting": "IL-6 (THP-1 cells)", "result": 3500, "unit": "nM"}
    ]},
    {"smiles": "Fc1ccccc1-c1nccc2[nH]c(-c3n[nH]c4cnc(-c5cn[nH]c5)cc34)cc12", "note": "[Compound 539, 3-(4-(2-Fluorophenyl)-1H-pyrrolo[3,2-c]pyridin-2-yl)-5-(1H-pyrazol-4-yl)-1H-pyrazolo[3,4-c]pyridine]", "values": [
      {"measurement": "EC50", "setting": "[1]", "result": 30, "unit": "nM"},
      {"measurement": "EC50", "setting": "SW480 colon cancer cells", "result": "> 10000", "unit": "nM"},
      {"measurement": "inhibition at 10 µM", "setting": "SW480 colon cancer cells", "result": 44.4, "unit": "%"},
      {"measurement": "EC50", "setting": "[2]", "result": 76, "unit": "nM"},
      {"measurement": "EC50", "setting": "[3]", "result": 10, "unit": "nM"},
      {"measurement": "Emax", "setting": "[3]", "result": 89, "unit": "%"},
      {"measurement": "EC50", "setting": "IL-6 (THP-1 cells)", "result": 393, "unit": "nM"}
    ]},
    {"smiles": "c1csc(-c2nccc3[nH]c(-c4n[nH]c5cnc(-c6cncc(CN7CCCCC7)c6)cc45)cc23)c1", "note": "[Compound 351, 5-(5-(Piperidin-1-ylmethyl)pyridin-3-yl)-3-(4-(thiophen-2-yl)-1H-pyrrolo[3,2-c]pyridin-2-yl)-1H-pyrazolo[3,4-c]pyridine]", "values": [
      {"measurement": "EC50", "setting": "[1]", "result": 3650, "unit": "nM"},
      {"measurement": "EC50", "setting": "SW480 colon cancer cells", "result": 2400, "unit": "nM"},
      {"measurement": "EC50", "setting": "[2]", "result": 1990, "unit": "nM"},
      {"measurement": "EC50", "setting": "[3]", "result": 10, "unit": "nM"},
      {"measurement": "Emax", "setting": "[3]", "result": 59, "unit": "%"},
      {"measurement": "inhibition at 10 µM", "setting": "IL-6 (THP-1 cells)", "result": 0, "unit": "%"},
      {"measurement": "EC50", "setting": "IL-6 (THP-1 cells)", "result": "> 10000", "unit": "nM"}
    ]},
    {"smiles": "Fc1ccc(-c2nccc3[nH]c(-c4n[nH]c5cnc(-c6cncc(CN7CCC(F)(F)C7)c6)cc45)cc23)cc1", "note": "[Compound 54, 5-(5-((3,3-Difluoropyrrolidin-1-yl)methyl)pyridin-3-yl)-3-(4-(4-fluorophenyl)-1H-pyrrolo[3,2-c]pyridin-2-yl)-1H-pyrazolo[3,4-c]pyridine]", "values": [
      {"measurement": "EC50", "setting": "[1]", "result": 291, "unit": "nM"},
      {"measurement": "EC50", "setting": "SW480 colon cancer cells", "result": 1100, "unit": "nM"},
      {"measurement": "EC50", "setting": "[2]", "result": 28, "unit": "nM"},
      {"measurement": "EC50", "setting": "[3]", "result": 10, "unit": "nM"},
      {"measurement": "Emax", "setting": "[3]", "result": 61, "unit": "%"},
      {"measurement": "EC50", "setting": "IL-6 (THP-1 cells)", "result": 468, "unit": "nM"}
    ]}
  ]
}
